Measurements reported in ChEMBL document CHEMBL1142139, “In vitro-clinical correlations for amphotericin B susceptibility in AIDS-associated cryptococcal meningitis” (2007).

Test system: Cryptococcus neoformans
Assay: Antimicrobial activity against Cryptococcus neoformans isolates in CSF from meningitis patients after 14 day iv treatment
Type: functional

## C[C@@H]1[C@H](O)[C@@H](C)/C=C/C=C/C=C/C=C/C=C/C=C/C=C/[C@H](O[C@@H]2O[C@H](C)[C@@H](O)[C@H](N)[C@@H]2O)C[C@@H]2O[C@](O)(C[C@@H](O)C[C@@H](O)[C@H](O)CC[C@@H](O)C[C@@H](O)CC(=O)O[C@H]1C)C[C@H](O)[C@H]2C(=O)O [AMPHOTERICIN B]
  CFU/ml: 0
